Experimental data from patent publication US20260125730A1, “A NEW INDUCER FOR METHANOL-FREE PICHIA PASTORIS EXPRESSION SYSTEM” (priority 2022, published 2026).

Test system: AOX1 promoter
Experiment: Induction of the AOX1 promoter in recombinant P. pastoris cells carrying the azurin gene; western blot of culture broth with anti-azurin antibody
Type: cell-based, Pichia pastoris
From the text: FIG. 1B. Relative expression levels of azurin protein in culture broths
Recombinant yeast cells were obtained by performing steps A, B and C in the study in which the recombinant DNA obtained by Inserting the azurin gene of Pseudomonas aeruginosa into pPICZαA was integrated into the genome of P. pastoris X33 strain (https://pubmed.ncbi.nlm.nih.gov/33346686/).
In this Invention, recombinant Pichia pastoris cells which carry the “azurin protein” gene (as a reference gene) from Pseudomonas aeruginosa in their genomes and can perform the extracellular production of this protein were used.
Said protein gene is located in the downstream of the AOX1 promoter in the genome of P. pastoris cells. If the AOX promoter is induced, expression of this gene inserted into the genome can be achieved. […] Methanol or farnesol was added to the culture medium In predetermined amounts every 24 hours.

SMILES | protein expression level among the farnesol groups (240 farnesol group compared with 120 and 480 μL/L, 72 hours, FIG. 1B) | protein expression level relative to the 0.5% (v/v) methanol-induced group (240 farnesol group, P<0.05, FIG. 1B) | extracellular protein (azurin) production on induction of the promoter (farnesol 120 μL/L, 240 μL/L and 480 μL/L added every 24 hours, sorbitol as carbon source, 30° C., 280 rpm, 72 hours, FIG. 1A) | protein (azurin) production on induction of the promoter (methanol 0.5% v/v (control inducer) added every 24 hours, sorbitol as carbon source, 30° C., 280 rpm, 72 hours, FIG. 1A)
CC(C)=CCCC(C)=CCCC(C)=CCO [farnesol] | highest protein expression level | higher than that of the 0.5% (v/v) methanol-induced group | protein production also occurred | 
CO [methanol] |  |  |  | protein production
